{
  "source": "patent US20090068746A1",
  "about": "“METHOD FOR MEASURING INTERACTION BETWEEN PHYSIOLOGICALLY ACTIVE SUBSTANCE AND TEST SUBSTANCE” (FUJIFILM Corporation, priority 2007, published 2009)",
  "system": "Carbonic Anhydrase (CA)",
  "test": "Surface plasmon resonance binding of compound to biotinylated CA-immobilized substrate",
  "details": "for Binding signal (binding observed or not) / Amount of 100 nM Hydrochlorothiazide bound: 100 nM in 1×PBS (pH 7.4); for Binding signal (binding observed or not): all the substrates; for Binding activity / Mean binding activity: 100 nM; for Binding activity: one-to-one binding assumed, molecular weight conversion; for Mean binding activity: mean of the three substrates (7450, 3400, 1600 RV CA)",
  "data": [
    {"smiles": "NS(=O)(=O)c1cc2c(cc1Cl)NCNS2(=O)=O", "note": "[Hydrochlorothiazide]", "values": [
      {"measurement": "Binding signal (binding observed or not)", "value": "binding signal was observed"},
      {"measurement": "Amount of 100 nM Hydrochlorothiazide bound", "setting": "amount of CA immobilized 1600 RV, Comparative example (without calibration)", "value": 7.1, "unit": "RV"},
      {"measurement": "Amount of 100 nM Hydrochlorothiazide bound", "setting": "amount of CA immobilized 1600 RV, Example (with calibration of baseline, third curve approximation)", "value": 7.3, "unit": "RV"},
      {"measurement": "Amount of 100 nM Hydrochlorothiazide bound", "setting": "amount of CA immobilized 3400 RV, Example (with calibration of baseline, third curve approximation)", "value": 16.3, "unit": "RV"},
      {"measurement": "Amount of 100 nM Hydrochlorothiazide bound", "setting": "amount of CA immobilized 7450 RV, Comparative example (without calibration)", "value": 25.4, "unit": "RV"},
      {"measurement": "Amount of 100 nM Hydrochlorothiazide bound", "setting": "amount of CA immobilized 7450 RV, Example (with calibration of baseline, third curve approximation)", "value": 31.7, "unit": "RV"},
      {"measurement": "Binding activity", "setting": "CA immobilized 1600 RV, with calibration", "value": 45.9, "unit": "%"},
      {"measurement": "Binding activity", "setting": "CA immobilized 1600 RV, without calibration", "value": 44.7, "unit": "%"},
      {"measurement": "Binding activity", "setting": "CA immobilized 3400 RV, with calibration", "value": 48.2, "unit": "%"},
      {"measurement": "Binding activity", "setting": "CA immobilized 3400 RV, without calibration", "value": 40.6, "unit": "%"},
      {"measurement": "Binding activity", "setting": "CA immobilized 7450 RV, with calibration", "value": 42.8, "unit": "%"},
      {"measurement": "Binding activity", "setting": "CA immobilized 7450 RV, without calibration", "value": 34.4, "unit": "%"},
      {"measurement": "Mean binding activity", "setting": "with calibration", "value": 45.6, "unit": "%"},
      {"measurement": "Mean binding activity", "setting": "without calibration", "value": 39.9, "unit": "%"}
    ]},
    {"smiles": "O=C(O)c1cccnc1", "note": "[Nicotinic acid]", "values": [
      {"measurement": "Binding signal (binding observed or not)", "value": "no binding was observed"}
    ]}
  ]
}
